According to EP0986381B1, “USE OF DITERPENES LIKE HYPOESTOXIDES FOR THE MANUFACTURE OF A MEDICAMENT FOR IMMUNOSUPPRESSION, ANTICANCER AND ANTIVIRAL TREATMENT” (Immune Modulation, Inc., priority 1997, dated 1998):

Experiments:
[1] = system: human two-way mixed lymphocyte reaction (PBMCs from two individuals); experiment: Two-way mixed leukocyte reaction (MLR), 3H-thymidine incorporation; type: cell-based
Procedure: The MLR is an assay recognized by those skilled in the art as an in vitro predictor of in vivo immunosuppressant activity. The MLR is an in vitro model of T-cell recognition of foreign major histocompatibility complex (MHC) gene products and was used as a predictive test of cell-mediated graft rejection (Abbas, A.K., et al., eds, 1994, 2nd ed. Cellular and Molecular Immunology, W.B. Saunders Co., USA). Graft rejection is carried out by T cells that recognize MHC molecules and destroy the graft. This process can be studied in vivo, but in-depth analysis, especially in humans, required the development of tests such as the MLR as an in vitro correlate of graft rejection. (Janeway, Chas. and Travers, Paul, Immunobiology, 2nd Ed., Garland Publishing, Inc, New York (1996)). It is well known in the art that the MLR is induced by co-culturing mononuclear leukocytes from one individual with mononuclear leukocytes derived from another individual. If there are differences in the alleles of the MHC genes between the two individuals, a large proportion of the mononuclear cells will proliferate over a period of 4-7 days, and is referred to as allogeneic MLR. The level of proliferative response is measured by incorporation of ^3H-thymidine into DNA during cell replication. Because the cells from each donor react and proliferate against the other, the resultant response is known as a "two-way MLR". JO-4 was tested in the MLR for its ability to "immunosuppress".
Mononuclear cells (at 2 x 10^6/ml) of each donor were first mixed thoroughly together in a 50 ml tube at a 1:1 ratio with volume. […] Cells were harvested onto glass fiber filters (Packard, Downers Grove, IL) with a 96-well automatic cell harvester (TOMTEC, Hamden, CT) and were counted directly on a Matrix 9600 beta counter (Packard).
Data were expressed as percent inhibition (% Inhibition) according to the following formula: % Inhibition = 100 -((Counts per minute (CPM) for wells with drug x 100))/(CPM for wells without drug) [formula] […]

[2] = Colorimetric MTT cytotoxicity assay, CV-1 cells; type: cell-based; details: african green monkey, read-out: concentration giving cytotoxicity of greater than 50%
Procedure: Normal African green monkey kidney cells (CV-1): CV-1 cells from the Hybriwix™ Probe Systems: Herpes Antiviral Susceptibility Test kit (Diagnostic Hybrids, Inc., Athens, OH) were used for toxicity testing of JO-4A by MTT assay. Colorimetric MTT assay: Cytotoxic effects of drugs were determined in vitro by a colorimetric assay (Mosmann, T., J. Immunol. Methods, 65: 55-63, 1983). Briefly, 1000 cells per well (100 µl) in a 96-well flat-bottom plate were cultured either with the culture medium alone or with various concentrations of drug at 37°C, in a 5% CO2-95% air humidified incubator for 72 hours. At the end of the culture, 10 µl of 5 mg/ml sterile solution of 3-(4,5-Dimethylthiazol-2yl)-2,5-diphenyltetrazolium bromide (MTT) (Sigma Chemicals, Saint Louis, MO) in PBS was added per well and the incubation was resumed for an additional 4 hours. Acid-isopropanol (100 µl of 0.04 N HCl in isopropanol) was added to all wells and kept at room temperature for 30 minutes. Mixing with a multichannel pipetter dissolved the dark blue crystals and the absorbance was measured at 545-650 nm using an ELISA plate reader.

HSV-2 = experiment: In vitro HSV-2 replication assay, Hybriwix Probe Systems; type: cell-based, Herpes simplex virus
Procedure: The antiviral activity of the drug was determined using the Hybriwix™ Probe Systems (Herpes Antiviral Susceptibility Test kit: Diagnostic Hybrids, Inc., Athens, OH). Briefly, either HSV-1 or HSV-2 isolates (ATTC, Rockville, MD) were pre-adsorbed at 37°C and 5% CO2 in a humidified incubator for 60 minutes on African green monkey Kidney cells in a 24-well flat-bottom plate. Following pre-adsorption, the viral inoculum was removed and the growth medium containing various concentrations of appropriate drug was placed in appropriate wells. The culture was continued for 48 hours for the amplification of the virus. Quantification of the HSV DNA present in each well was determined by the nucleic acid hybridization method. The cells and/or virus were lysed with DNA wicking agent and the single-stranded DNA was immobilized on a Hybriwix™ filter by a vertical capillary absorption of the wicking agent/DNA solution. The amount of HSV target DNA from each well was determined using radioactive (I^125)-HSV DNA probe containing genetic sequences, which are homologous to HSV-1 or HSV-2 sequences. The amount of radioactivity present on the Hybriwix™ was dependent upon the amount of HSV DNA present after culture, and was determined in a gamma counter (Packard Instrument Co., Meriden, CT).

human PBMCs = experiment: Toxicity on human PBMC, trypan blue dye exclusion; type: cell-based; details: 1.25, 2.5 and 5 µg/mL; 2, 5 and 7 days
Procedure: In order to determine if JO-4 was toxic on human cells in vitro, human PBMCs were cultured in the absence or presence of varying concentrations of JO-4 (1.25, 2.5, and 5 µg/mL) for different days (2, 5 and 7 days). At the end of each incubation period, viability of cells was determined by trypan blue dye exclusion method.

[3] = Colorimetric MTT cytotoxicity assay, normal cervical ectoepithelial cells; type: cell-based; details: human, crec-ec cells

Compound | effect on two-way MLR ([1]; JO-4 at 1.0, 0.5 or 0.25 µg/ml, 5 days) | CC50 at 72 h [2] [µM] | inhibition at 3.125 µM (HSV-2; Human alphaherpesvirus 2, 48 h, 3.125 µM, two days, African green monkey kidney cells) [%] | inhibition at 12.5 µM (HSV-2; Human alphaherpesvirus 2, 48 h, 12.5 µM, two days, African green monkey kidney cells) [%] | IC50 (HSV-2; Human alphaherpesvirus 2, 48 h, two days, African green monkey kidney cells, read-out: IC50 dose on HSV-1 inhibition (paragraph on HSV-2 replication)) [µM] | toxicity to lymphocytes (human PBMCs) | IC50 ([1]; Homo sapiens, Leukocyte, 120 h, 5 days) [µM] | inhibition at 10 µM ([1]; Homo sapiens, Leukocyte, at 10.0 µM) [%] | cytotoxicity ([3]; at the IC50 dose for HeLa (between 10 µM and 12.5 µM), read-out: cytotoxic effect) [%] | CC50 at 72 h ([3]; normal cervical ectoepithelial cells, 72 hours, read-out: IC50 (cytotoxicity)) [µM] | replication and growth of HSV-2 (HSV-2; African Green Monkey kidney cells)
C=C1C(=O)C[C@H]2C[C@@H]3O[C@@]3(C)CC[C@@H]3O[C@@]3(C)C[C@@H](OC(C)=O)[C@H]1C2(C)C [JO-4, hypoestoxide] | inhibited | > 50 | 58 | 65 | < 3.12 | not toxic |  |  |  |  | 
C=C1C(=O)CC2CC3OC3(C)CCC3OC3(C)CC(O)C1C2(C)C (stereo not drawn) [JO-4A] |  | ~25 |  |  |  |  | 5 to 10 | 64 | 6 | > 100 | inhibited
